Read-outs that look alike come from different tables or passages of the source. Non-standard residues stand in square brackets, D forms with d. Residues, ends and D or L forms follow the SMILES beside them. Dip = N[C@H](C(=O)O)C(c1ccccc1)c1ccccc1
Columns and labels:
SK-OV-3 cells [1] = assay type: cell-based, human; settings: MTS, n = 3
Method: SK-OV-3, CCRF-CEM, HEK-293, MDA-MB-468, LLC-PK1, and MES-SA were used to determine the cytotoxicity of the synthesized linear and cyclic peptides. About 5000, 10,000, and 50,000 cells were seeded for SK-OV-3, HEK-293, and CCRF-CEM cells, respectively, in 0.1 mL of medium per well of 96-well plates. An appropriate medium was used for each cell line (SK-OV-3: McCoy’s 5A with L-glutamine containing fetal bovine serum (FBS) (10%) and penicillin or streptomycin (1%); CCRF-CEM: RPMI-1640 medium with L-glutamine and sodium bicarbonate containing FBS (10%) and penicillin or streptomycin (1%); MDA-MB-468 cells: DMEM/F12 (1:1) (1×) with L-glutamine and 15 mM HEPES containing FBS (10%) and penicillin or streptomycin (1%); LLC-PK1 cells: Dulbecco’s Modified Eagle’s Medium with 4500 mg/L glucose, L-glutamine and sodium bicarbonate, without sodium pyruvate liquid containing FBS (10%) and penicillin or streptomycin (1%); MES-SA cells: consisting of half SK-OV-3 and half CCRF-CEM media; and HEK-293 cells: Minimum Essential Medium Eagle with Earle’s salts and sodium bicarbonate, without L-glutamine containing FBS (10%) and penicillin or streptomycin (1%)). Then, 20 µL of peptides containing 5% DMSO in water were added to each well.
Adhesive cells were detached with 0.05% trypsin/EDTA after 15 min. The suspended cells were seeded in the medium 24 h prior to the experiment according to the previously reported procedure. The medium was changed before adding the peptides for adherent cells. Each concentration 5, 10, 25, 50, and 166 µM (containing 0.8% DMSO) had triplicate wells to minimize possible errors. […] The cell viability was measured by utilizing Multi-Mode Microplate Reader (SpectraMax M5 model, Molecular Devices, San Jose, CA, USA) after adding 20 µL of the MTS reagent to each well and incubating for 3 additional hours. […] The protocol manager was selected “endpoint” on the spectrophotometer’s software (SoftMax Pro 7). The 96-well plates were inserted inside spectrophotometer, and the data were acquired. The percentage of cell viability was calculated using the following equation:(1) =(Average OD values of samples treated with the compound /Average OD values of no treatment samples )∗100

MES-SA cells = test: In vitro cytotoxicity (MTS) in MES-SA cells; assay type: cell-based, human; settings: 10 µM, 24 h incubation, n = 3
Method: (§1) SK-OV-3, CCRF-CEM, HEK-293, MDA-MB-468, LLC-PK1, and MES-SA were used to determine the cytotoxicity of the synthesized linear and cyclic peptides. About 5000, 10,000, and 50,000 cells were seeded for SK-OV-3, HEK-293, and CCRF-CEM cells, respectively, in 0.1 mL of medium per well of 96-well plates. […]
(§2) Adhesive cells were detached with 0.05% trypsin/EDTA after 15 min. […] The cell viability was measured by utilizing Multi-Mode Microplate Reader (SpectraMax M5 model, Molecular Devices, San Jose, CA, USA) after adding 20 µL of the MTS reagent to each well and incubating for 3 additional hours. […] The percentage of cell viability was calculated using the following equation:(1) =(Average OD values of samples treated with the compound /Average OD values of no treatment samples )∗100

MDA-MB-468 cells = test: In vitro cytotoxicity (MTS) in MDA-MB-468 cells; assay type: cell-based, human; settings: MDA-MB-468, 10 µM, 24 h and 72 h incubation
Method: as §1, §2

LLC-PK1 cells = test: In vitro cytotoxicity (MTS) in LLC-PK1 cells; assay type: cell-based, pig; settings: LLC-PK1, 10 µM, 24 h and 72 h incubation
Method: as §1, §2

SK-OV-3 cells [2] = test: Cellular uptake by flow cytometry in SK-OV-3 cells; assay type: cell-based, human; settings: SK-OV-3, F’-FTC 2 µM, peptide 10 µM, 3 h
Method: CCRF-CEM and SK-OV-3 cells were used to measure the cellular uptake of a fluorescent-labeled phosphopeptide (F’-GpYEEI) (2 µM), stavudine (F’-d4T) (2 µM) lamivudine (F’-3TC) (1–2 µM), emtricitabine (F’-FTC) (2 µM), and siRNA (F’-siRNA) (36 nM) with the least toxic concentration for each linear and the cyclic peptide (10 µM). The uptake was measured in the presence and absence of the peptides. The SK-OV-3 (0.5 million) and CCRF-CEM (a million) cells were incubated in each well of 6-well plates with the synthesized peptide and the fluorescent-labeled compound in one well. Another well contained the fluorescent-labeled compound alone for 3 h in an incubator (37 °C in a humidified atmosphere of 5% CO2). […] For more details, please refer back to the cytotoxicity method described above.
The cells were transferred to FACS analysis tubes after being washed with phosphate-buffered saline (PBS). […] Finally, the cells were resuspended in flow cytometry buffer and analyzed by flow cytometry (FACSVerse model, Becton Dickinson, San Jose, CA, USA) using the FITC channel and the BD FACSuite software. […] Finally, the cells were analyzed by using FITC channel […] argon laser for the excitation and the emitted 519 nm fluorescence for detection. […] Results were evaluated to determine whether the peptides are facilitating the fluorescence compound to cross the membrane.

MDA-MB-231 cells = test: Cellular uptake of F’-siRNA by flow cytometry in MDA-MB-231 cells; assay type: cell-based, human; settings: MDA-MB-231, F’-siRNA 36 nM, n = 3
[3] = Transmission electron microscopy, self-assembly; assay type: physicochemical; settings: TEM, 30 μM, dried on grid overnight, not stained
Method: Transmission electron microscopy (TEM) was done on a LVEM 5D Microscope model (Delong instruments, Brno, Czech Republic) samples were prepared on an Ultrathin Carbon Film on Lacey Carbon Support Film with 400 mesh copper from Ted Pella. Dilute solutions of 30 μM concentration were used for the TEM analysis. Samples were dropped on grids, evaporated overnight, and not stained. They were incubated for approximately 2 h after thawing from a freezer (0 to −18 °C). Samples were air-dried, and images were obtained with a LVEM5 (Delong Instruments, US) 5 keV field emission gun. The camera was Zyla 5.5 Scientific CMOS with specifications of exposure 50–200 [ms], pixel readout 200 MHz—lowest noise, dynamic range 12-bit (low noise), and summing 1.

N=C(N)NCCC[C@@H]1NC(=O)[C@H](C(c2ccccc2)c2ccccc2)NC(=O)[C@H](CCCNC(=N)N)NC(=O)[C@H](C(c2ccccc2)c2ccccc2)NC(=O)[C@H](CCCNC(=N)N)NC(=O)[C@H](C(c2ccccc2)c2ccccc2)NC(=O)[C@H](CCCNC(=N)N)NC(=O)[C@H](C(c2ccccc2)c2ccccc2)NC(=O)[C@H](CCCNC(=N)N)NC(=O)[C@H](C(c2ccccc2)c2ccccc2)NC1=O [[DipR]5] (cyclo([Dip]R[Dip]R[Dip]R[Dip]R[Dip]R))
reduction of cell proliferation (SK-OV-3 cells [1]; SK-OV-3, 10 µM, 72 h incubation): 75%
reduction of cell proliferation (SK-OV-3 cells [1]; SK-OV-3, 25 µM, 24 h incubation): 81%
reduction of cell proliferation (MES-SA cells): 38%
cytotoxicity (MDA-MB-468 cells): no significant cytotoxicity
cytotoxicity (LLC-PK1 cells): no significant cytotoxicity
increase of cellular uptake of F’-FTC (SK-OV-3 cells [2]): 6 fold
increase of cellular uptake of F’-siRNA vs siRNA alone (MDA-MB-231 cells; N/P ratio 10, 24 h): 30 fold
increase of cellular uptake of F’-siRNA vs siRNA alone (MDA-MB-231 cells; N/P ratio 20, 24 h): 50 fold
morphology of self-assembled structures [3]: aggregation
size of self-assembled structures [3]: ≤ 30 nm

— PMC8997995, “Amphiphilic Cell-Penetrating Peptides Containing Natural and Unnatural Amino Acids as Drug Delivery Agents” (Cells, 2022)
